Reference: US20080064679A1, “Water Soluble Cannabinoids” (priority 2004, published 2008)
Several values for one entry are separate records, joined by “and”; a condition that tells them apart may be missing. Equal entries are not always repeated. Where two headings read alike, the source gives them in different places.

Columns and labels:
[1] = tested on: mice; test: Spontaneous activity (S.A.), mouse tetrad; format: in vivo; details: for ED50: Mus musculus
[2] = Description: By “water-soluble” we mean that 1 mg of material in 1 ml of water gives a clear solution and is water miscible.
(§1) For the in vivo studies, the drugs were dissolved in either saline or emulphor:ethanol:saline (E:E:S) as indicated.

[3] = molecular target: T1, human CB1 receptor (Homo sapiens, UniProt P21554); test: CB1 receptor binding, [3H]CP55,940 displacement in membranes of transfected cells
T1 construct: expressed in transfected cells; b94 says CHO for CB1
Description: as §1
(§2) cLogP calculations. Absolute solubility determinations were not performed. Rather, cLogP calculations were performed using the CS ChemDraw Ultra software (Cambridge Soft Corporation, Cambridge, Mass.). Receptor Binding. HEK-293 cells stably expressing the human CB1 receptor were cultured in DMEM with 10% FBS and Chinese Hamster Ovary (CHO) cells stably expressing the human CB2 receptor were cultured in DMEM with 10% FCS. Cells were harvested by replacement of the media with cold phosphate-buffered saline containing 1 mM EDTA followed by centrifugation at 1000×g for 5 min at 4° C. The pellet was resuspended in 50 mM Tris-HCl containing 320 mM sucrose, 2 mM EDTA and 5 mM MgCl2 (pH 7.4) (centrifugation buffer), then centrifuged at 1000×g for 10 min at 4° C., and the resulting supernatant was saved. This process was repeated twice. The supernatant fractions were combined and centrifuged at 40,000×g for 30 min at 4° C. The resulting P2 pellet was resuspended in assay buffer (50 mM Tris-HCl (pH 7.4), 3 mM MgCl2, 0.2 mM EGTA, and 100 mM NaCl) and protein was determined by the method of Bradford ENRfu(Bradford 1976). Membranes were stored at −80° C. until use. […] The assay was incubated at 30° C. for 1 hr and terminated by addition of ice cold 50 mM Tris-HCl plus BSA (1 mg/ml) (pH 7.4) followed by filtration under vacuum through Whatman GF/B glass fiber filters with 3 washes with cold Tris buffer. Bound radioactivity was determined by liquid scintillation spectrophotometry at 50% efficiency after extraction by shaking samples for 30-60 min with Budget-Solve scintillation fluid. Data are reported as the mean±SEM of three experiments, each performed in triplicate. Ki values were calculated from displacement data using EBDA (Equilibrium Binding Data Analysis; BIOSOFT, Milltown, N.J.). [^35S]GTPγS Binding Assays. Concentration-effect curves were generated by incubating membranes (10 μg prepared from CB1 expressing cells as described above) in assay buffer containing BSA (1 mg/ml) with various concentrations of test compounds in the presence of 20 μM GDP and 0.1 nM [^35S]GTPγS in a 1 ml total volume. […] Basal binding was assessed in the absence of agonist, and nonspecific binding was measured in the presence of 10 μM GTPγS. The reaction was incubated for 90 min at 30° C. and terminated by filtration under vacuum through Whatman GF/B glass fiber filters with 3 washes with cold (4° C.) Tris buffer (50 mM Tris-HCl, pH 7.4). Bound radioactivity was determined by liquid scintillation spectrophotometry at 95% efficiency after extraction overnight in ScintiSafe Econo 1 scintillation fluid. Data are reported as mean±SEM of three experiments, each performed in triplicate. Nonlinear regression analysis was conducted by iterative fitting using JMP (SAS for Macintosh). Net-stimulated [^35S]GTPγS binding is defined as [^35S]GTPγS binding in the presence of drug minus basal and percent stimulation is expressed as (net stimulated [^35S]GTPγS binding/basal)×100%. Behavioral Evaluations. All animals were allowed to acclimate to the observation room overnight. Behavioral effects were assessed in the tetrad model in order to measure potency in producing antinociception, catalepsy, hypothermia, and hypomobility. The baselines for tail-flick latency (2-4 seconds) and rectal temperature were determined prior to i.v. injections. Baseline rectal temperatures were measured using a telethermometer and a thermometer probe inserted to 25 mm (Yellow Springs Instrument Co., Yellow Springs, Ohio). The mice were then given either an i.v. i.c.v. injection of the analog. The mice were placed in individual photocell activity chambers 5 min later. Spontaneous activity was monitored for 10 min in a Digiscan Animal Activity Monitor (Omnitech Electronice, Inc., Columbus, Ohio) as measured by the number of interruptions of 16 photocell beams per chamber.

[4] = molecular target: T1, human CB1 receptor; test: [35S]GTPγS binding assay in membranes of CB1 expressing cells; format: biochemical; details: for EC50: mean±SEM; for Emax: read-out: CB1 % CP Stim
Description: as §1, §2

[5] = iv, vehicle E:E:S (1:1:18), read-out: S.A. ED50 (reducing spontaneous activity)
[6] = maximal GTPγS binding as percentage of stimulation produced by CP 55,940
[7] = iv, figure legends, i.v., vehicle 1:1:18 ethanol:emulphor:saline, read-out: ED50 after i.v. administration, spontaneous activity
[8] = 1 mg of analog in 1 ml of water, visual observation
[9] = Tables 2b, 3b, 4a, mean±SEM, read-out: CB1 Ki
[10] = [35S]GTPγS binding, read-out: CB1 EC50
[11] = iv, vehicle saline, read-out: S.A. ED50 (reducing spontaneous activity)

T1 sequence (P21554 whole entry): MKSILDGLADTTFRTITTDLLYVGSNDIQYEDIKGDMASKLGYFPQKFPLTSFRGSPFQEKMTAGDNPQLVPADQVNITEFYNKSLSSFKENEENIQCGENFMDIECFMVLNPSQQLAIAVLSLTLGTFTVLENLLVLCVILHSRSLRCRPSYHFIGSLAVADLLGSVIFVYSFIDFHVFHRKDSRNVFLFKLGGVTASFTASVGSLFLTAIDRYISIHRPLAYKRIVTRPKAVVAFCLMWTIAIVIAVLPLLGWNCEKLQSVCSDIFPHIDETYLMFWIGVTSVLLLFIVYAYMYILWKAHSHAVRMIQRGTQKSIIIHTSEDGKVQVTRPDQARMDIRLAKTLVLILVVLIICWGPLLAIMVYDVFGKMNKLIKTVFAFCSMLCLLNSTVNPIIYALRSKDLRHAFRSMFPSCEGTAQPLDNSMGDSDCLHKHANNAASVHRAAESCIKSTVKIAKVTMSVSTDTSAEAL

Compound | ED50 [1, 5] [µmol/kg] | Solubility (water-soluble) [2] | Ki ([3]; CB1 Ki) | EC50 ([4]; CB1 EC50, [35S]GTPγS binding) | Emax [4, 6] [%] | other results
CC1=CC[C@@H]2[C@@H](C1)c1c(O)cc(C(C)(C)CCCCC(=O)N3CCCC3)cc1OC2(C)C [O-2399, Pyrrolidino-carboxamido] | 0.03 | No | 2.85 ± 0.52 nM | 275 ± 87.9 nM | 117 ± 4.9 | Water solubility of the hydrochloride salt [2]: none of the HCl salts was water-soluble
CC1=CC[C@@H]2[C@@H](C1)c1c(O)cc(C(C)(C)CCCCn3cncn3)cc1OC2(C)C [O-2716, 1,2,4-Triazol-1-yl] | 0.03 | No | 3.43 ± 0.16 nM | 36.8 ± 4.23 nM | 93.1 ± 1.65 | ED50 [1, 7]: 0.03 µmol/kg
1-(2-methyl-4-N-piperidinobutyryloxy) [O-2374] | – | – | – | – | – | S.A. ED50 (reducing spontaneous activity) ([1]; i.v., vehicle saline): 0.18 µmol/kg; Solubility (water-soluble) [2, 8]: Yes; Ki [3, 9]: 4.62 ± 2.2 nM; EC50 [4, 10]: 16.5 ± 6.97 nM; CB1 % CP Stim [4, 6]: 80.9 ± 3.73%
CC1=CC[C@@H]2C(C1)c1c(OC(=O)CCCN(C(C)C)C(C)C)cc(C(C)(C)CCCCC(=O)N3CCOCC3)cc1OC2(C)C (stereo partly drawn) [O-2694, Diisopropylaminobutyrate of Δ^8-THC-3-(1,1-dimethyl-6-morpholin-4-yl-6-oxo-hexyl)] | – | – | – | – | 120 ± 8.04 | ED50 ([1]; Table 4b, vehicle not indicated, read-out: S.A. ED50 (reducing spontaneous activity)): 0.045 µmol/kg; Solubility (water-soluble) [2, 8]: Yes; Ki [3, 9]: 3.7 ± 0.43 nM; EC50 [4, 10]: 28.3 ± 3.47 nM
CC1=CC[C@@H]2[C@@H](C1)c1c(O)cc(C(C)(C)CCCCC(=O)N3CCCCCC3)cc1OC2(C)C [O-2421, Homopiperidino-carboxamido] | 0.15 | No | 4.24 ± 1.01 nM | 23.2 ± 2.06 nM | 81.8 ± 8.96 | –
CNC(=O)CCCCC(C)(C)c1cc(O)c2c(c1)OC(C)(C)[C@@H]1CC=C(C)C[C@@H]21 [O-2490, N-(Methyl)carboxamido] | 0.49 | No | 18.7 ± 0.58 nM | 64.2 ± 10.6 nM | 92.7 ± 7.81 | –
CC1=CC[C@@H]2[C@@H](C1)c1c(O)cc(C(C)(C)CCCCC(=O)N3CCCCC3)cc1OC2(C)C [O-2373, Piperidino-carboxamido] | 0.02 | No | 0.96 ± 0.11 nM | 13.5 ± 1.81 nM | 119 ± 2.05 | Water solubility of the hydrochloride salt [2]: none of the HCl salts was water-soluble
CC1=CC[C@@H]2[C@@H](C1)c1c(O)cc(C(C)(C)CCCCn3ccnc3C)cc1OC2(C)C [O-2651, 2-Methyl-imidazol-1-y1] | – | Yes | 13.9 ± 0.83 nM | 82.9 ± 45.7 nM | 33.4 ± 3.41 | ED50 [1, 11]: 1.46 µmol/kg
CC1=CC[C@@H]2[C@@H](C1)c1c(O)cc(C(C)(C)CCCCC(=O)NN3CCCCCC3)cc1OC2(C)C [O-2489, N-(Homo-piperidin-1-yl)-carboxamido] | 2.07 | No | 15.8 ± 0.44 nM | 86.6 ± 17.4 nM | 112 ± 2.32 | –
CC1=CC[C@@H]2[C@@H](C1)c1c(O)cc(C(C)(C)CCCCC(=O)N3CCN(C)CC3)cc1OC2(C)C [O-2381, Methylepiperazino-carboxamido] | 21.4 | No | 112 ± 14 nM | – | – | Decrease of CB1 receptor affinity and pharmacological potency, piperidine to piperazine [3]: more than a hundred fold
CC1=CC[C@@H]2[C@@H](C1)c1c(O)cc(C(C)(C)CCCCC(N)=O)cc1OC2(C)C [O-2352, Carboxamido] | 0.16 | No | 13.1 ± 0.61 nM | 42 ± 4 nM | 95 ± 0.3 | Water solubility of the hydrochloride salt [2]: none of the HCl salts was water-soluble
CC1=CC[C@@H]2[C@@H](C1)c1c(O)cc(C(C)(C)CCCCC(=O)NN3CCCC3)cc1OC2(C)C [O-2543, N-(Pyrrolidin-yl)-carboxamido] | 0.71 | No | 23.3 ± 3.4 nM | 81.1 ± 40 nM | 71.3 ± 4.23 | –
CC1=CC[C@@H]2[C@@H](C1)c1c(O)cc(C(C)(C)CCCCn3ccnc3)cc1OC2(C)C [O-2545, Imidazol-1-yl] | 0.01 | – | 1.34 nM and 1.47 nM | 29.3 nM and 4.57 nM | – | ED50 ([1]; iv, figure legends, i.v., saline, read-out: ED50 after i.v. administration, spontaneous activity): 0.09 µmol/kg; ED50 [1, 11]: 0.09 µmol/kg
CC1=CC[C@@H]2[C@@H](C1)c1c(O)cc(C(C)(C)CCCCC(=O)NN3CCOCC3)cc1OC2(C)C [O-2544, N-(Morpholin-1-yl)-carboxamido] | 0.17 | No | 5.97 ± 0.65 nM | 39.7 ± 11.4 nM | 116 ± 3.71 | Water solubility of the hydrochloride salt [2]: none of the HCl salts was water-soluble
CC1=CC[C@@H]2[C@@H](C1)c1c(O)cc(C(C)(C)CCCCn3cccn3)cc1OC2(C)C [O-2715, Pyrazol-1-yl] | 0.004 | No | 1.94 ± 0.29 nM | 4.03 ± 0.28 nM | 93 ± 1.75 | ED50 [1, 7]: 0.004 µmol/kg
CC1=CC[C@@H]2[C@@H](C1)c1c(O)cc(C(C)(C)CCCCC(=O)N3CCOCC3)cc1OC2(C)C [O-2372, Morpholino-carboxamido] | 0.01 | No | 1.3 ± 0.12 nM | 5.88 ± 0.42 nM | 120 ± 1.11 | Water solubility of the hydrochloride salt [2]: none of the HCl salts was water-soluble
CC1=CC[C@@H]2[C@@H](C1)c1c(O)cc(C(C)(C)CCCCc3ncc[nH]3)cc1OC2(C)C [O-2737, 1H-Imidazol-2-yl] | > 24.5 | Yes | 54 nM and 54.9 nM | – | – | ED50 [1, 11]: > 2.2 µmol/kg
